In ChEMBL document CHEMBL1201862, “PubChem BioAssay data set” (2004):
Active and inactive are the calls of the source. Unless noted, the calls are words filed in the database; no cut-off is given here.

Assays:
Bcl-2-like protein 10 = target: T1, Bcl-2-like protein 10 (Homo sapiens, UniProt Q9HD36); test: Bcl-B/TR3 peptide binding disruption – biochemical, fluorescence polarization, FITC-TR3 peptide, selectivity assay for Bfl-1 inhibitor project, primary screen (AID 748);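 further: fluorescence polarization from a fluorescein-labelled TR3 peptide binding purified Bcl-B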
T1 sequence (Q9HD36 whole entry): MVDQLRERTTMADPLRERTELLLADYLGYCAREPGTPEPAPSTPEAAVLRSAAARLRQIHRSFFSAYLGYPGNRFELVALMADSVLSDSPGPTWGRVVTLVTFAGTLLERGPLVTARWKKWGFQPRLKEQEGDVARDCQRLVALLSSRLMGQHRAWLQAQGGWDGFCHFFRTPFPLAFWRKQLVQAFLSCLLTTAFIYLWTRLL

Protein Tat = Protein Tat (Human immunodeficiency virus type 1 group M subtype B (isolate HXB2)(HIV-1), UniProt P04608); format: functional;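 further: tat binding to TAR RNA read out by fluorescence polarization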
Sequence of Protein Tat (P04608 whole entry): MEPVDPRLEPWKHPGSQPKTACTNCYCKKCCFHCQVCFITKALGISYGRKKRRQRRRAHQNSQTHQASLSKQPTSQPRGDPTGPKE

[1] = inhibitors of orthopox intermediate gene expression, dose response, cell-based, single fluorophore reporter, dry powder (AID 1117271); format: functional
[2] = lung carcinoma cell viability loss – CellTiter-Glo luminescence, dry powder, set 17, dose response (AID 1117284); format: functional, cell-based; settings: A549
[3] = Single fluorophore orthopox expression reporter, late gene expression Measured in Cell-Based and Microorganism Combination System Using Plate Reader - 2142-08_Inhibitor_Dose_DryPowder_Activity.; format: functional

| Structure (SMILES) | IC50 (Bcl-2-like protein 10) | IC50 (Protein Tat) | AC50 [1] | AC50 [2] | AC50 [3] |
| --- | --- | --- | --- | --- | --- |
| O=C1c2ccccc2CC1Sc1nnc(-c2ccccn2)o1 (stereo not given) | > 100 µM (inactive) | > 100 µM (active) | – | – | – |
| C[C@@H](O)C#Cc1ccc2c(c1)O[C@@H](CN(C)Cc1ccc(-c3cccc(Cl)c3)cc1)[C@@H](C)CN([C@@H](C)CO)S2(=O)=O | – | – | 3.58 µM (active) | 51.5 µM (active) | 2.54 µM (active) |
